For assay [1], the system named is Escherichia coli DH5α. The assay can be described thus: Assessment of antibiotic penetration into corn (E. coli growth on LB plates). Type of assay: cell-based. To be noted: kernels soaked in 2.5 or 0.25 mg/ml ciprofloxacin. As to the method:
The kernels were soaked for 1.5 hours as described herein. After soaking, kernels were air dried and assayed to determine whether the antibiotic was able to coat and penetrate the kernel. To test this, a concentrated sample of Escherichia coli DH5α in water was spread onto 5 Luria Broth (LB) plates. […] The plates were incubated overnight at 37 degrees C. and bacterial growth and/or zone(s) of inhibition were assessed the next day.
A concentrated culture of E. coli was then spread onto LB plates and one of the coated kernels was then placed onto the center of the plate. The plates were incubated overnight, and bacterial growth was assessed the next day.
The plates were incubated overnight and the next day bacterial growth was assessed.

The test system of assay [2] is Sitophilus maize weevils. The experiment in a line: Weevil F1 offspring development (dissection of corn kernels). The class given is in vivo, Sitophilus zeamais. To be noted: for offspring in the larval form: after 25 days; for number of offspring found in dissected corn kernels: after 25 days (water 12).
Assay [3] deals with Sitophilus maize weevils. The assay can be described thus: Weevil offspring emergence (fecundity). To be noted: 2.5 mg/ml ciprofloxacin; till day 43.
Assay [4] relates to Sitophilus maize weevils. The experiment in a line: Weevil survival monitoring. The class given is in vivo, Sitophilus zeamais. To be noted: S. zeamais mating pairs; 250 μg/ml or 2.5 mg/ml ciprofloxacin; 18 days. The protocol: Sitophilus maize weevils (Sitophilus zeamais) were reared on organic corn at 27.5° C. and 70% relative humidity. Prior to being used for weevil rearing, corn was frozen for 7 days and then tempered to 10% humidity with sterile water. […] For treatments, the appropriate amount of stock solution was diluted in sterile water.
Weevil survival was monitored daily for 18 days, after which DNA was extracted from the remaining weevils in each group. Briefly, the weevil body was surface sterilized by dipping the weevil into a 6% bleach solution for approximately 5 seconds. […] DNA concentration was measured using a nanodrop nucleic acid quantification, and SPE and weevil DNA copy numbers were measured by qPCR. […] The primers used for weevil (β-actin) were SACT144_FOR ([…]; SEQ ID NO: 240) and SACT314_REV ([…]; SEQ ID NO: 241) (Login et al., 2011). qPCR was performed using a qPCR amplification ramp of 1.6 degrees C./s and the following conditions: 1) 95° C. for 10 minutes, 2) 95° C. for 15 seconds, 3) 57° C. for 30 seconds, 4) repeat steps 2-3 40×, 5) 95° C. for 15 seconds, 6) 55° C. for 1 minute, 7) ramp change to 0.15 degrees C./s, 8) 95° C. for 1 second. qPCR data was analyzed using analytic (Thermo Fisher Scientific, QuantStudio Design and Analysis) software.

For assay [5], the system named is Plasmodium falciparium. To be noted: previous study (Saliba et al., 2005); cited from earlier work.
For assay [6], the system named is Acyrthosiphon pisum aphids. The experiment in a line: Aphid fecundity (offspring production). The class given is in vivo. To be noted: for aphid reproduction: 10 or 100 uM pantothenol. The protocol: In addition, the developmental stage (1st, 2nd, 3rd, 4th, 5th, and 5R (5th that has reproduced) instar) was determined daily throughout the experiment. Once an aphid reached the 4th instar stage, they were given their own artificial feeding system in a deep petri dish so that fecundity could be monitored once they reached adulthood.
For adult aphids, new nymphs were counted daily and then discarded. At the end of the experiments, fecundity was measured in two ways: 1) the mean day at which the first offspring for the treatment group was determined and 2) the mean number of offspring produced daily once the aphid reached adulthood. Pictures of aphids were taken throughout the experiment to evaluate size differences between treatment groups. […]

Assay [7] relates to Acyrthosiphon pisum aphids. The assay can be described thus: Aphid survival monitoring. Type of assay: in vivo. To be noted: eNASCO; for aphid survival rate: leaf coating, 10 uM pantothenol.
The test system of assay [8] is endosymbiotic Buchnera. The assay can be described thus: Buchnera/aphid DNA copy numbers by qPCR. The class given is in vivo, Buchnera aphidicola. To be noted: 10 or 100 uM pantothenol, 8 days. As to the method:
After 7 days of treatment, DNA was extracted from multiple aphids from each treatment group. Briefly, the aphid body surface was sterilized by dipping the aphid into a 6% bleach solution for approximately 5 seconds. Aphids were then rinsed in sterile water and DNA was extracted from each individual aphid using a DNA extraction kit (Qiagen, DNeasy kit) according to manufacturer's instructions. DNA concentration was measured using a nanodrop nucleic acid quantification, and Buchnera and aphid DNA copy numbers were measured by qPCR. […]
After 8 days of treatment, DNA was extracted from multiple aphids from each treatment group. Briefly, the aphid body surface was sterilized by dipping the aphid into a 6% bleach solution for approximately 5 seconds. Aphids were then rinsed in sterile water and DNA was extracted from each individual aphid using a DNA extraction kit (Qiagen, DNeasy kit) according to manufacturer's instructions. DNA concentration was measured using a nanodrop nucleic acid quantification, and Buchnera and aphid DNA copy numbers were measured by qPCR.
After 8 days of treatment, DNA was extracted from the remaining aphids in each treatment group. Briefly, the aphid body surface was sterilized by dipping the aphid into a 6% bleach solution for approximately 5 seconds. Aphids were then rinsed in sterile water and DNA was extracted from each individual aphid using a DNA extraction kit (Qiagen, DNeasy kit) according to manufacturer's instructions. DNA concentration was measured using a nanodrop nucleic acid quantification, and Buchnera and aphid DNA copy numbers were measured by qPCR.
After 7 of treatment, DNA was extracted from the remaining aphids in each treatment group. Briefly, the aphid body surface was sterilized by dipping the aphid into a 6% bleach solution for approximately 5 seconds. Aphids were then rinsed in sterile water and DNA was extracted from each individual aphid using a DNA extraction kit (Qiagen, DNeasy kit) according to manufacturer's instructions. DNA concentration was measured using a nanodrop nucleic acid quantification, and Buchnera and aphid DNA copy numbers were measured by qPCR.
Briefly, the aphid body surface was sterilized by dipping the aphid into a 6% bleach solution for approximately 5 seconds. Aphids were then rinsed in sterile water and DNA was extracted from each individual aphid using a DNA extraction kit (Qiagen, DNeasy kit) according to manufacturer's instructions. DNA concentration was measured using a nanodrop nucleic acid quantification, and Buchnera and aphid DNA copy numbers were measured by qPCR.
After 3 days of treatment, DNA was extracted from the remaining living aphids from each treatment group. Briefly, the aphid body surface was sterilized by dipping the aphid into a 6% bleach solution for approximately 5 seconds. Aphids were then rinsed in sterile water and DNA was extracted from each individual aphid using a DNA extraction kit (Qiagen, DNeasy kit) according to manufacturer's instructions. DNA concentration was measured using a nanodrop nucleic acid quantification, and Buchnera and aphid DNA copy numbers were measured by qPCR. […]
In general terms: In qPCR the cycle at which signal appears reflects the starting amount.

The test system of assay [9] is Acyrthosiphon pisum aphids. The experiment in a line: Aphid body area (size) measurement from images. Type of assay: in vivo. To be noted: eNASCO; 10 or 100 uM pantothenol in artificial diet; by 3 days post-treatment. The protocol: For adult aphids, new nymphs were counted daily and then discarded. At the end of the experiments, fecundity was determined as the mean number of offspring produced daily once the aphid reached adulthood. Pictures of aphids were taken throughout the experiment to evaluate size differences between treatment groups.
Each treatment group received approximately the same number of individuals from each of the collection plant. For each treatment, 20 aphids were placed onto each leaf. Aphids were monitored daily for survival and dead aphids were removed when they were discovered. In addition, the developmental stage (1st, 2nd, 3rd, 4th, 5th instar, and 5R, representing a reproducing 5th instar) was determined daily throughout the experiment. […]
For adult aphids, new nymphs were counted daily and then discarded. At the end of the experiments, fecundity was measured in two ways: 1) the mean day at which the first offspring for the treatment group was determined and 2) the mean number of offspring produced daily once the aphid reached adulthood. […]
Aphids LSR-1 (which harbor only Buchnera), Acyrthosiphon pisum were grown on fava bean plants (Vroma vicia faba from Johnny's Selected Seeds) in a climate-controlled incubator (16 h light/8 h dark photoperiod; 60±5% RH; 25±2° C.). […] Aphids were monitored daily for survival and dead aphids were removed from the deep petri dish when they were discovered. […]

In assay [10] the test system is Acyrthosiphon pisum aphids. The assay can be described thus: Aphid developmental stage monitoring. The class given is in vivo.
The subject of assay [11] is ApGLNT1 glutamine transporter. To be noted: Price et al., 2014 PNAS; cited from earlier work.

Molecules are shown by their SMILES. “Also recorded” adds a separate entry of the source.

For the compound `O=C(O)c1cn(C2CC2)c2cc(N3CCNCC3)c(F)cc2c1=O` [ciprofloxacin], in [1], the “bacterial growth on plate with entire soaked corn kernel” value is given as “no bacteria grew on plates with entire corn kernels”. Further, the F1 weevil development result in assay [2] (250 ug/ml and 2.5 mg/ml ciprofloxacin) is reported as “showed a delay in development compared to control treated weevils”. Besides, in [2] (250 ug/ml ciprofloxacin), the “offspring in the larval form” value worked out at 38% and the “number of offspring found in dissected corn kernels” value came out at 13 offspring. Besides, in [2] (2.5 mg/ml ciprofloxacin), the “offspring in the larval form” value turned out to be 65% and the “number of offspring found in dissected corn kernels” value is 20 offspring. Also, the “emerged F1 offspring” value in assay [3] was “much less offspring that emerged”. Also, the weevil survival entry in assay [4] is listed as “all weevils remained alive for the course of the experiment”.
Take `CC(C)(CO)[C@@H](O)C(=O)NCCCO` [pantothenol]: the “growth of Plasmodium falciparium” value in [5] is recorded as “inhibits the growth of Plasmodium falciparium”. For the same compound, the figures for the “mean number of offspring per day produced by reproducing aphids” value in [6] (10 uM pantothenol (control approximately 7)) and in assay [6] (100 uM pantothenol (control approximately 7)) were “approximately 4 offspring/day” and ~5 offspring/day, respectively. Further, the aphid reproduction result in assay [6] is “loss of aphid reproduction”; in assay [6] (listed as Pantothenol) it was “resulted in loss of reproduction”. The “mean day aphids began reproducing” value in assay [6] (all treatment groups (10 and 100 uM pantothenol)) worked out at 7 days. Besides, in assay [7] (10 or 100 uM pantothenol in artificial diet, through plants), the aphid survival result is reported as “increased aphid mortality; also recorded: negatively affected aphid fitness”. For the same compound, the aphid survival rate result in assay [7] is on record as “lower survival rates than aphids placed on coated leaves with the control solution”; in assay [7] (listed as Pantothenol), “resulted in aphid death”. Further, the results for the “Buchnera/aphid DNA copies” value in [8] and in [8] (listed as Pantothenol) were “does not affect Buchnera/aphid DNA copy number directly” and “did not affect endosymbiotic Buchnera”, respectively. Moreover, in assay [9], the aphid area entry is “drastic effect of pantothenol treatment; also recorded: smaller in area than untreated controls”. Besides, the aphid developmental stage result is reported as “Development was delayed” in [10] (eNASCO 1st and 2nd instar, 10 or 100 uM pantothenol in artificial diet without essential amino acids, through plants); “delayed aphid development” in assay [10] (eNASCO 1st and 2nd instar, 10 or 100 uM pantothenol in artificial diet without essential amino acids, through plants, listed as Pantothenol); “did not affect aphid development” in assay [10] (eNASCO 1st instar, leaf coating, 10 uM pantothenol in 0.025% Silwet L-77).
Turning to `N=C(N)NCCC[C@H](N)C(=O)O` [arginine], in assay [11], the glutamine uptake result is “inhibits glutamine uptake by the glutamine transporter”.

Values taken from patent publication US20190216093A1, “COMPOSITIONS AND RELATED METHODS FOR AGRICULTURE” (priority 2017, published 2019).
